Source: patent publication US7776833B2, “Use of cyclic bioisosters of purine system derivatives for treating diseases produced by disorders of niterergic and dopaminergic systems” (priority 2003, dated 2010)

Key:
Assay type in all cases: in vivo, Wistar rats
[1] = tested on: physical dependence from morphine (morphine abstinence); experiment: Morphine abstinence syndrome, signs scored in the open field test; conditions: Morphine − (morphine + compound); compound 3 x 20 mg/kg intramuscularly; one value for the three compounds
Description: Thirty six hours after the last injection selected motor and autonomice parameters which are specific symptoms of abstinence were monitored in the <<open field>> test (an arena with a diameter of 120 cm and wall height of 40 cm).
Med., 2002, V.29, p.1-6.). The observable signs were recorded quantitatively (if it was possible) with further assignment of an index to each sign (depending on the specific feature of the sign) and calculation of the sum of scores. The expression of the abstinence syndrome was presented as a sum of scores. The results were processed using nonparametric statistical analysis based on the Mann-Whitney test.

[2] = tested on: nitrites and nitrates (NOx-); experiment: Measurement of nitrates/nitrites (NOx-) in brain regions after the morphine abstinence experiment; conditions: 3 x 20 mg/kg intramuscularly
Description: (§1) After the above experiments the rat brains were isolated and immediately placed in the ice cold 0.9% solution of sodium chloride. After cooling the following structures were isolated from the brain: cerebral cortex, hippocampus, mesencephalon, striatum, brainstem, hypothalamus and cerebellum. The isolated tissue was homogenized in a Potter S homogenizer for 3 minutes at 1500 rpm in 4-5 volumes of 20 mM HEPES (pH 7.5) at 4° C. The supernatants were centrifuged for 30 minutes at 11000 g at 4° C., and aliquots of the obtained supernatants were taken for determining nitrates and nitrites (NOx-), while the remaining part was mixed with cooled 20 mM of HEPES (pH 7.5), containing 0.5 mM ethylenediamine tetraacetate (EDTA), 1 mM dithiotreitol (DDT), 1 mM phenylmethylsulfonyl fluoride (PMSF), aprotinine and leupeptine at a concentration of 5 μg/ml, this mixture being used for determining nitric oxide synthase (NOS) activity.
To estimate the intensity of metabolism of nitric oxide in rats, quantitative determination of stable metabolites of nitrogen oxide-nitrites and nitrates (NOx-) was performed using a fluorometric method by fluorescence of naphthotriazole, a product of reaction of 2,3- diaminonaphthalene (DAN) and nitrite in an acidic medium (Misko T. R., Schilling R. J., Salvemini D. et al. A fluorometric assay for the measurement of nitrite in biological samples. Anal. Biochem., 1993, V. 214, p.11-16) with modifications (Lei B., Adachi N., Nagaro T., Arai T. Measurement of total nitric oxide metabolite (NO (x) (-)) levels in vivo. Brain. Res. Protoc., 1999, V. 4, p. 415-419).
The supernatants of brain deproteinized at 100° C. were placed in a nitrite recovery system containing 0.125 unit/ml of nitrate reductase, 25 μM NADPH and 25 μM FAD prepared in 20 mM Tris-HCl buffer pH 7.6 and incubated for 30 minutes at 37° C. For oxidation of NADPH a lactate dehydrogenase (LDH)/pyruvate system was used. Then 316.0 μM DAN solution in 0.62 M HCl was added and the mixture was incubated for 10 minutes in dark. For stabilization of fluorescence of the formed naphthotriazole, 280 mM NaOH was added. The fluorescence intensity was measured using spectrofluorometer Hitachi F-3000 at a wavelength of excitation 365 nm and emission 405 nm. To calculate the concentration of NOx- in the brain a standard solution of sodium nitrate was used. The concentration of NOx- was expressed in nmol/mg of protein.
(§2) The content of protein in the samples was determined by the Bradford method (Bradford M. M. A rapid and sensitive method for quantitation of microgram quantities of protein using the principle of protein binding . Anal. Biochem., 1976, V. 72, p. 248-254) using Coumassi dye. The statistical analysis was performed using methods appropriate for respective experiments. The data are expressed as mean±standard error of mean.

[3] = tested on: nitric oxide synthase (NOS); experiment: Nitric oxide synthase activity in brain regions, radiometric [3H]L-citrulline method; conditions: 3 x 20 mg/kg intramuscularly
Description: as §1
The activity of nitric oxide synthase (NOS) was determined using a radiometric method by the rate of L-citrulline accumulation in a reaction of [^3H] L-arginine oxidation catalyzed by NOS (Bredt M., Snyder S. Nitric oxide mediates glutamate-linked enhancement of cGMP levels in the cerebellum. Proc. Natl. Acad. Sci., USA, 1989, V.86, p.9030-9033). The formation of L-citrulline in this reaction is equivalent to a biosynthesis of nitric oxide.
The reaction was initiated by adding brain supernatant in the reaction medium containing 2 μCi/ml of [3H] L-arginine, 20 mM HEPES (pH 7.4), 0.2 mM CaCl2, 5 μM FAD, 5 μM FMN, 1 mM NADPH, 50 μM of BH4. After 15-60 minutes of incubation at 37° C. a suspension of Dowex 50WX8-400 (Na^+-form), which sorbs unreacted [^3H]L-arginine, but not [^3H] L-citrulline was added to the samples. After the sorption the radioactivity of the samples was determined on a scintillation counter SL-4000 (“Intertechnique”). The activity of Ca^2+-dependent and Ca^2+-independent NOS isoforms was determined by the difference of rates of [^3H]L-citrulline formation in three parallel samples containing 2 mM EDTA (Ca^2+ chelator), 2 mM EDTA+2 mM L-NAME (inhibitor all NOS isoforms) or without inhibitors. The enzyme activity was expressed in rnol [^3H]L-citrulline acumulated per 1 minute on 1 mg of supernatant protein.
as §2

[4] = Groups Nos. 3-14, compound without morphine, one value for all 12 compounds
[5] = Morphine + compound, one value for the three compounds

Row | SMILES | Authentic differences (ξ-square criterion) in appearance of signs of abstinence: <<Wet dog>> shakes [1] | Authentic differences (ξ-square criterion) in appearance of signs of abstinence: Aggression [1] | Authentic differences (ξ-square criterion) in appearance of signs of abstinence: Convulsions [1] | Authentic differences (ξ-square criterion) in appearance of signs of abstinence: Diarrhea [1] | Authentic differences (ξ-square criterion) in appearance of signs of abstinence: Dyspnea [1] | Authentic differences (ξ-square criterion) in appearance of signs of abstinence: Forelimb jogging [1] | Authentic differences (ξ-square criterion) in appearance of signs of abstinence: Grit with teeth [1] | Authentic differences (ξ-square criterion) in appearance of signs of abstinence: Mastication [1] | Authentic differences (ξ-square criterion) in appearance of signs of abstinence: Piloerection [1] | Authentic differences (ξ-square criterion) in appearance of signs of abstinence: Ptosis [1] | Authentic differences (ξ-square criterion) in appearance of signs of abstinence: Rhinorrhea [1] | Authentic differences (ξ-square criterion) in appearance of signs of abstinence: Squeak when touched [1] | Nitrites, brainstem [2, 4] | Nitrites, cerebellum [2, 4] | Nitrites, cerebral cortex [2, 4] | Nitrites, hippocampus [2, 4] | Nitrites, hypothalamus [2, 4] | Nitrites, midbrain [2, 4] | Nitrites, striatum [2, 4] | Nitrites, brainstem [2, 5] | other results
1 | O=c1[nH][nH]c(=O)c2nccnc12.[Li] [Compound 26, lithium salt of pyrazino[2,3-d]-6H-pyridazine-5,8-dione] | 0.7821 | 0.7921 | 0.3456 | 0.0067 | 0.0567 | 0.6745 | 0.2994 | 0.1975 | 0.2567 | 0.0105 | 0.2131 | 0.1968 | 6.31 ± 0.58 nmol/mg of protein | 6.66 ± 0.63 nmol/mg of protein | 4.31 ± 0.37 nmol/mg of protein | 6.47 ± 0.72 nmol/mg of protein | 6.77 ± 0.83 nmol/mg of protein | 6.65 ± 0.70 nmol/mg of protein | 6.11 ± 0.29 nmol/mg of protein | 7.07 ± 0.85 nmol/mg of protein | Nitrites, cerebellum [2, 5]: 5.76 ± 0.49 nmol/mg of protein; Nitrites, cerebral cortex [2, 5]: 4.62 ± 0.27 nmol/mg of protein; Nitrites, hippocampus [2, 5]: 5.27 ± 0.41 nmol/mg of protein; Nitrites, hypothalamus [2, 5]: 6.87 ± 0.75 nmol/mg of protein; Nitrites, midbrain [2, 5]: 5.99 ± 0.58 nmol/mg of protein; Nitrites, striatum [2, 5]: 3.57 ± 0.42 nmol/mg of protein; Activity of NOS, hippocampus [3, 4]: 3.09 ± 0.16 nmol/min/mg of protein; Activity of NOS, hypothalamus [3, 4]: 5.45 ± 0.24 nmol/min/mg of protein; Activity of NOS, midbrain [3, 4]: 2.60 ± 0.29 nmol/min/mg of protein; Activity of NOS, striatum [3, 4]: 1.26 ± 0.08 nmol/min/mg of protein; Activity of NOS, hippocampus [3, 5]: 2.33 ± 0.11 nmol/min/mg of protein; Activity of NOS, hypothalamus [3, 5]: 5.47 ± 0.32 nmol/min/mg of protein; Activity of NOS, midbrain [3, 5]: 2.03 ± 0.31 nmol/min/mg of protein; Activity of NOS, striatum [3, 5]: 1.21 ± 0.10 nmol/min/mg of protein
2 | O=c1[nH][nH]c(=O)c2c(Br)ncnc12.[K] [Compound 37, potassium salt of 4-bromine-pyrimido[4,5-d]-6H-pyridazine-5,8-dione] | 1.0000 | 0.8456 | 0.5578 | 0.0001 | 0.0685 | 0.9321 | 0.7003 | 0.1888 | 0.2345 | 0.0232 | 0.2935 | 0.2035 | 6.31 ± 0.58 nmol/mg of protein | 6.66 ± 0.63 nmol/mg of protein | 4.31 ± 0.37 nmol/mg of protein | 6.47 ± 0.72 nmol/mg of protein | 6.77 ± 0.83 nmol/mg of protein | 6.65 ± 0.70 nmol/mg of protein | 6.11 ± 0.29 nmol/mg of protein | 6.87 ± 0.81 nmol/mg of protein | Nitrites, cerebellum [2, 5]: 5.93 ± 0.54 nmol/mg of protein; Nitrites, cerebral cortex [2, 5]: 4.84 ± 0.31 nmol/mg of protein; Nitrites, hippocampus [2, 5]: 5.31 ± 0.33 nmol/mg of protein; Nitrites, hypothalamus [2, 5]: 6.77 ± 0.46 nmol/mg of protein; Nitrites, midbrain [2, 5]: 5.95 ± 0.52 nmol/mg of protein; Nitrites, striatum [2, 5]: 3.57 ± 0.42 nmol/mg of protein; Activity of NOS, hippocampus [3, 4]: 3.09 ± 0.16 nmol/min/mg of protein; Activity of NOS, hypothalamus [3, 4]: 5.45 ± 0.24 nmol/min/mg of protein; Activity of NOS, midbrain [3, 4]: 2.60 ± 0.29 nmol/min/mg of protein; Activity of NOS, striatum [3, 4]: 1.26 ± 0.08 nmol/min/mg of protein; Activity of NOS, hippocampus [3, 5]: 2.65 ± 0.15 nmol/min/mg of protein; Activity of NOS, hypothalamus [3, 5]: 5.56 ± 0.34 nmol/min/mg of protein; Activity of NOS, midbrain [3, 5]: 1.89 ± 0.27 nmol/min/mg of protein; Activity of NOS, striatum [3, 5]: 1.34 ± 0.09 nmol/min/mg of protein
